Test results published in US12448388B2, “PRMT5 inhibitors and uses thereof” (Gilead Sciences, Inc., priority 2023, dated 2025).
Converted amounts (≈) assume the structure as drawn. Where two headings read alike, the source gives them in different places.

Legend:
[1] = Cell viability assay (CellTiter-Glo, 7 days), HCT116 WT; format: cell-based; details: human, HCT116 WT cells, 7 days of treatment, CTG
Experimental: Control compounds were analyzed in parallel each time for quality control. In Brief, on Day -1, a serial dilution of stock compounds in DMSO was performed using BioMek liquid handlers and dispensed using Echo acoustic dispenser into 384 well plates. Both tool compounds and sample compounds were spotted in the same plate for a dose response of PRMT5 inhibitors. Compound plates were stored as frozen until the cells were ready for seeding. […] After equilibrating the plate in room temperature, the cells were incubated for 7 days inside the sealed incubator set at 37° C. with 90% humidity and 5% CO2. On Day 7, the viability of cells was measured using a CTG assay kit (CellTitre-Glo;Promega cat no. G7573). Shortly, 40 μl per well of luminescent cell viability assay reagent were dispensed using EL460 liquid dispenser 5 μl cassette. CTG luminescence signal was measured using an EnVision plate reader (PerkinElmer) in accordance with manufacturer's instruction. […] Selectivity with * is artificially high due to limited solubility of the compound hampering accurate measurement of WT CC50.

[2] = MDR1/BCRP assay: permeability in cPgp-KO-MDCK-WT cells; format: in vitro ADME; details: dog, pH 7.4
Experimental: The cells were maintained in an incubator at 37° C., 90% humidity, and 5% CO2 until reaching confluence over 5 days in 96-well transwell plates. Experiments were conducted using an HBSS donor buffer (Invitrogen) containing 10 mM HEPES and 15 mM glucose, adjusted to pH 7.4. The receiver well contained HBSS buffer supplemented with 1% BSA, 10 mM HEPES, and 15 mM glucose, and the pH was adjusted to 7.4. TEER values were measured to assess membrane integrity after an initial equilibration with BSA-free transport buffer for 15 minutes. The experiment was started by adding dosing solutions containing test compounds at 1 μM. Cells were dosed on the apical (A) side or basolateral (B) side at 100 μl and 200 μl, respectively, to determine forward (A to B) and reverse (B to A) permeability. At the 2-hour time point, 50 μl samples were collected from the receiver compartment. Each compound was tested in 2 separate replicate wells for each condition. All samples were immediately collected into plates, and 50 μL of acetonitrile was added. Subsequently, 350 μl of 30:70 methanol: acetonitrile containing internal standard was added to precipitate proteins and stabilize the test compounds. To test for non-specific binding and compound instability, the total amount of the drug was quantified at the end of the experiment and compared to the material present in the original dosing solution as a percentage of the recovery. All samples were analyzed by LC-MS/MS using electrospray ionization.
The apparent permeability, Papp, and % recovery were calculated as follows: […]

[3] = test system: HCT116 MTAP-deleted cell lines; test: Cell viability assay (CellTiter-Glo, 7 days), HCT116 MTAP-deleted; format: cell-based; details: for Selectivity: HCT116 WT CC50 versus HCT116 MTAP^del CC50; for CC50: Homo sapiens, HCT116 MTAP-deleted; for plasma-adjusted CC50 (paCC50): paCC50 = CC50-HCT116-MTAP^del * (% free CCM/% free human plasma)
Outline: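 PRMT5 inhibitors were serially diluted in DMSO and acoustically spotted as dose-response series into plates before cell seeding. Cells were grown with compound for 7 days at 37 °C, 5% CO2, 90% humidity, then viability was read by CellTiter-Glo luminescence and reported as CC50.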

[4] = PBS solubility (kinetic solubility from DMSO stocks); format: physicochemical; details: 22 °C, aqueous buffer, kinetic from dmso stock; 1x PBS pH 7.4, 1.0% DMSO, 24-hour incubation at ambient temperature
Experimental: Buffer Preparation: 1×PBS, 7.4: Phosphate Buffered Saline solution 10×, PBS (Fisher Bioreagent, part number BP399-500) 50 mL was added to approximately 450 mL HPLC grade H2O. The volume of the solution was then adjusted to 500 mL for a total dilution factor of 1:10 and a final PBS concentration of 1×. The pH of the final solution was measured and found to be 7.4.
The final DMSO Concentration is 1.0% and maximum theoretical compound concentration is 100 μM (assuming stock concentration of 10 mM). The filter plate was sealed. Following 24-hour incubation at ambient temperature (20.8-24.0° C.), the samples were vacuum filtered, and the filtrates were collected in a 96 well polypropylene plate for analysis. The collection plate was sealed for analysis. Filtrates were injected into the nitrogen detector for quantification on Analiza's Automated Discovery Workstation. The results are reported here in both μM and μg/mL.
Calculation of Results: The equimolar nitrogen response of the detector is calibrated using standards which span the dynamic range of the instrument from 0.08 to 4500 μg/ml nitrogen. The filtrates were quantified with respect to this calibration curve. The calculated solubility values are corrected for background nitrogen present in the DMSO, and the media used to prepare the samples. All reported values for compounds containing adjacent nitrogen atoms in a ring structure should be increased by ˜25%. […] The solubility results presented assume that the samples were free of nitrogen containing impurities and are stable under the assay conditions.

[5] = Pharmacokinetics in cassette in male Sprague-Dawley rats for Kp measurement; format: in vivo; details: 1 mg/kg, intravenous
Experimental: E.1 Test Animal: Male Sprague-Dawley Rats (225-300 g) with Indwelling Bilateral Jugular Vain Cannula (JVC/JVC) or Single Jugular Vein Cannula (JVC)
E.2 Pharmaceutical Formulation and Administration
Test compound was dissolved in the vehicle of 10% DMSO, 10% ethanol, 40% polyethylene glycol 300, and 40% propylene glycol to get 1 mg/mL test compound solution. The compound was administered by intravenous administration at a dose of 1 mL/kg. Fasting was not required.
• Anticoagulant: K2EDTA • Volume: approximately 225 μL blood at each bleed • Jugula vein via syringe and needle or another method (non-terminal samples) or exsanguination (cardiac puncture) under isoflurane (or CO2 inhalation if isoflurane is unavailable) anesthesia (terminal time points). Blood samples were collected into K2EDTA tubes • Tissue collection and processing: following the terminal blood collection, the brain and CSF were collected from each animal.

[6] = HCT-116, 168 h, 7 days of treatment, CTG, read-out: CC50-HCT116-MTAP^del
[7] = HCT-116, cell viability, class symbols, read-out: CC50
[8] = HCT-116, cell viability assay, class symbols, read-out: CC50

Structure (SMILES)	Papp A→B at 2 h, 1 µM [2] [×10⁻⁶ cm/s]	solubility at 24 h [4] [µM]	Kp ([5]; brain Kp = [brain]/[plasma], rat, read-out: Rat brain Kp)	Kp ([5]; brain Kpu,u = Kp * (plasma free/rat brain free), read-out: Rat brain Kpu,u)	CC50 at 7 days [1] [nM]	Selectivity [3]	CC50 [3, 6] [nM]	CC50 [3, 7] [nM]	plasma-adjusted CC50 (paCC50) ([3]; HCT-116) [nM]	CC50 [3, 8] [nM]
Nc1nc2cnc(C(=O)N3C[C@H](F)CC4Oc5cc(C(F)(F)F)ccc5[C@@H]43)cc2n2cncc12 (mixture of isomers) [Ff-113, Rac-(4-aminoimidazo[1,5-a]pyrido[3,4-e]pyrazin-8-yl)((3R,4aS,9bS)-3-fluoro-7-(trifluoromethyl)-3,4,4a,9b-tetrahydrobenzofuro[3,2-b]pyridin-1(2H)-yl)methanone]	12.3	1.1 (≈ 0.52 µg/mL)			2570	86	30	< 100		
Nc1nc2cnc(C(=O)N3CCC[C@@H]4Oc5cc(C(F)(F)F)c(F)cc5[C@@H]43)cc2n2cncc12 [Ff-115, (4-aminoimidazo[1,5-a]pyrido[3,4-e]pyrazin-8-yl)((4aS,9bS)-8-fluoro-7-(trifluoromethyl)-3,4,4a,9b-tetrahydrobenzofuro[3,2-b]pyridin-1(2H)-yl)methanone]	7.6	< 1			478	48	10	< 100	202	
Nc1nc2cc(F)c(C(=O)N3CCO[C@@H]4Cc5cc(OC(F)F)c(F)cc5[C@@H]43)cc2n2cncc12 [Ff-174, (4-amino-7-fluoroimidazo[1,5-a]quinoxalin-8-yl)((4aS,9aR)-7-(difluoromethoxy)-6-fluoro-2,3,9,9a-tetrahydroindeno[2,1-b][1,4]oxazin-4(4aH)-yl)methanone]	17.8	< 1			2280	63	36	< 100		
C[C@@H]1C[C@@H]2Oc3cc(C(F)(F)F)ccc3[C@@H]2N(C(=O)c2cc3c(cn2)nc(N)c2cncn23)C1 [Ff-252, (4-aminoimidazo[1,5-a]pyrido[3,4-e]pyrazin-8-yl)((3R,4aS,9bS)-3-methyl-7-(trifluoromethyl)-3,4,4a,9b-tetrahydrobenzofuro[3,2-b]pyridin-1(2H)-yl)methanone]	13.6	< 1			534	41	13	< 100	269	
Cc1ncc2c(N)nc3ccc(C(=O)N4CCC[C@@H]5Oc6cc(C(F)(F)F)ccc6[C@@H]54)cc3n12 [Ff-345, (4-amino-1-methylimidazo[1,5-a]quinoxalin-8-yl)((4aS,9bS)-7-(trifluoromethyl)-3,4,4a,9b-tetrahydrobenzofuro[3,2-b]pyridin-1(2H)-yl)methanone]	10.2	< 1			3620	113	32	< 100		
N#Cc1cc2nc(N)c3cncn3c2cc1C(=O)N1CCC[C@@H]2Oc3cc(C(F)(F)F)ccc3[C@@H]21 [Ff-346, 4-amino-8-((4aS,9bS)-7-(trifluoromethyl)-1,2,3,4,4a,9b-hexahydrobenzofuro[3,2-b]pyridine-1-carbonyl)imidazo[1,5-a]quinoxaline-7-carbonitrile]	10.8	4.2 (≈ 2.01 µg/mL)			305	51	6	< 100	155	

Second part, led by results:

Papp A→B at 2 h, 1 µM [2] [×10⁻⁶ cm/s]	solubility at 24 h [4] [µM]	Kp ([5]; brain Kp = [brain]/[plasma], rat, read-out: Rat brain Kp)	Kp ([5]; brain Kpu,u = Kp * (plasma free/rat brain free), read-out: Rat brain Kpu,u)	Structure (SMILES)	CC50 at 7 days [1] [nM]	Selectivity [3]	CC50 [3, 6] [nM]	CC50 [3, 7] [nM]	plasma-adjusted CC50 (paCC50) ([3]; HCT-116) [nM]	CC50 [3, 8] [nM]
13.4	21.8 (≈ 10.6 µg/mL)			Cc1ncc2c(N)nc3cc(F)c(C(=O)N4CCC[C@@H]5Oc6nc(C(F)(F)F)ccc6[C@@H]54)cc3n12 [Ff-363, (4-amino-7-fluoro-1-methylimidazo[1,5-a]quinoxalin-8-yl)((4aS,9bS)-7-(trifluoromethyl)-3,4,4a,9b-tetrahydrofuro[2,3-b:4,5-b′]dipyridin-1(2H)-yl)methanone]	2040	127	16	< 100	196	
10	< 1			Cc1ncn2c1c(N)nc1cc(F)c(C(=O)N3CCC[C@@H]4Oc5cc(C(F)(F)F)ccc5[C@@H]43)cc12 [Ff-379, (4-amino-7-fluoro-3-methylimidazo[1,5-a]quinoxalin-8-yl)((4aS,9bS)-7-(trifluoromethyl)-3,4,4a,9b-tetrahydrobenzofuro[3,2-b]pyridin-1(2H)-yl)methanone]	730	56	13			< 100
7.4	< 1	0.52	0.06	Nc1nc2cc(Cl)c(C(=O)N3CCC[C@@H]4Oc5cc(C(F)(F)F)ccc5[C@@H]43)cc2n2cncc12 [Ff-587, (4-amino-7-chloroimidazo[1,5-a]quinoxalin-8-yl)((4aS,9bS)-7-(trifluoromethyl)-3,4,4a,9b-tetrahydrobenzofuro[3,2-b]pyridin-1(2H)-yl)methanone]	274	55	5		329	< 100
11.4	< 1			Cc1ncc2c(N)nc3cnc(C(=O)N4CC[C@H]5C[C@@H]4c4ccc(OC(F)(F)F)cc4O5)cc3n12 [Ff-698, (4-amino-1-methylimidazo[1,5-a]pyrido[3,4-e]pyrazin-8-yl)((2S,6R)-9-(trifluoromethoxy)-3,4-dihydro-2H-2,6-methanobenzo[b][1,5]oxazocin-5(6H)-yl)methanone]	1440	96	15		295	
10.9	2.6 (≈ 1.26 µg/mL)			Cc1ncc2c(N)nc3cnc(C(=O)N4CC[C@H]5C[C@@H]4c4ccc(C(F)(F)F)c(F)c4O5)cc3n12 [Ff-699, (4-amino-1-methylimidazo[1,5-a]pyrido[3,4-e]pyrazin-8-yl)((2S,6R)-10-fluoro-9-(trifluoromethyl)-3,4-dihydro-2H-2,6-methanobenzo[b][1,5]oxazocin-5(6H)-yl)methanone]	1110	74	15		237	
